{"source": "patent US11926826B2", "about": "“Twist signaling inhibitor compositions and methods of using the same” (City of Hope, priority 2016, dated 2024)", "key": {"TWIST [1]": {"test_system": "TWIST", "assay": "TWIST knockdown after Lipofectamine 2000 transfection in A2780R (western blot)", "assay_type": "cell-based", "details": "over three days post transfection", "protocol": "Cell Culture. A2780R and all derivatives of Ovcar8 were grown in RPMI 1640 (Genesee Scientific, San Diego, CA) in a tissue culture incubator at 37° C., 5% CO2, and 90% humidity. Growth medium was supplemented with 10% fetal bovine serum and 1% penicillin/streptomycin. Cells were passaged every 2-4 days using 0.25% trypsin (Genesee Scientific). Where indicated, cells were transfected with Lipofectamine 2000 (Thermo Fisher, Waltham, MA) according to the manufacturer's instructions. A2780R cells are a cisplatin resistant derivative of A2780.\n(§1) Western Blotting. Following siRNA treatment, cells were pelleted and lysed in RIPA buffer. Protein concentration was determined by BCA assay (Thermo Fisher). Following SDS-PAGE, protein was transferred to Amersham PVDF membrane (Genesee Scientific) using a BioRad Trans-Blot SD semi-dry transfer unit. Blots were then blocked in milk for one hour at room temperature or overnight at 4° C. Incubation with primary antibody took place for one hour at room temperature or overnight at 4° C. Antibodies were diluted in 5% milk, with 0.1-0.2% Tween-20. Antibodies used were TWIST 2c1a (Santa Cruz Biotechnology, Dallas, TX) at 1:250-1:500 dilution, β-Actin, A1978 (Sigma Aldrich, St. Louis, MO) at 1:2500-1:5000 dilution; and Horseradish Peroxidase (HRP) conjugated anti-mouse secondary antibodies. […]"}, "TWIST [2]": {"test_system": "TWIST", "assay": "TWIST knockdown after YTZ3-15 delivery of siRNA in ovarian cancer cell lines", "assay_type": "cell-based", "protocol": "PAMAM dendrimer design and delivery. The polyamidoamine (PAMAM) dendrimer used in this study is the […] third generation dendrimer, illustrated in FIG. 16A and previously described. To complex the dendrimer with siRNA, YTZ3-15 at 240 μM was mixed with […] in OptiMEM Low Serum Medium (Thermo Fisher). Upon complexing with siRNA, dendrimers form micelle structures with siRNA at the surface and the hydrophobic tails sequestered in the core (FIG. 16B). 14.6 μl YTZ3-15 and 10 μl siRNA were used per well of a 6-well plate. Final concentrations of YTZ3-15 and siRNA once added to cells were 1.75 μM and 50 nm, respectively. Where indicated, 3.5 μM YTZ3-15 and 100 nm siRNA were used for Ovcar8.\nWestern Blotting. Following siRNA treatment, cells were pelleted and lysed in RIPA buffer. Protein concentration was determined by BCA assay (Thermo Fisher). Following SDS-PAGE, protein was transferred to Amersham PVDF membrane (Genesee Scientific) using a BioRad Trans-Blot SD semi-dry transfer unit. Blots were then blocked in milk for one hour at room temperature or overnight at 4° C. Incubation with primary antibody took place for one hour at room temperature or overnight at 4° C. Antibodies were diluted in 5% milk, with 0.1-0.2% Tween-20. Antibodies used were TWIST 2c1a (Santa Cruz Biotechnology, Dallas, TX) at 1:250-1:500 dilution, β-Actin, A1978 (Sigma Aldrich, St. Louis, MO) at 1:2500-1:5000 dilution; and Horseradish Peroxidase (HRP) conjugated anti-mouse secondary antibodies. For film-based westerns, Blue Devil film (Genesee Scientific) and ECL Plus chemiluminescent substrate (Thermo Fisher) were used to detect protein. For digital westerns, the Syngene Pxi4 digital blot imager and Michigan Diagnostics FemtoGlow chemilumescent substrate were used."}, "TWIST [3]": {"test_system": "TWIST", "assay": "TWIST knockdown after MSN delivery of siRNA in ovarian cancer cell lines", "assay_type": "cell-based", "details": "A2780R and Ovcar8; loaded onto MSNs", "protocol": "MSN design and delivery. Mesoporous silica nanoparticles (MSNs) were synthesized utilizing the sol-gel method as described previously. First, 250 mg 95% cetyltrimethylammonium bromide (CTAB) was dissolved in 120 ml of water with 875 μl 2M sodium hydroxide solution, at 80° C. Next, 1.2 ml of 98% tetraethylorthosilicate was added. After 15 min, 300 μl of 42% 3-(trihydroxysilyl) propyl methylphosphonate was added, and the mixture was stirred 2 hr. Particles were collected using centrifugation and washed with methanol. Acidic methanol was then used to remove any remaining CTAB surfactants. Zeta potential at 50 μg/mL was 43.75 mV [14]. All chemicals were obtained from Aldrich (St. Louis, MO). Particles were ˜120 nm in diameter, with 2.5 nm pores. Low molecular weight (1.8 kD branched polymer) polyethyleneimine (PEI) was electrostatically attached to the particle surface to provide a positive change to attract negatively charged siRNA [21]. To complex siRNA for in vitro experiments, 10 μl siRNA at 10 μM was mixed with 70 ul MSNs at 500 μg/ml and 20 μl water, and the mixture was incubated overnight at 4° C. on a roller. The following day, 100 μl of the MSN-siRNA complexes was added to each well of a 6-well plate containing 1900 μl normal medium.\nas §1"}, "Ovcar8-IP tumors": {"test_system": "Ovcar8-IP tumors", "assay": "Ovcar8-IP intraperitoneal tumor model in NSG mice, MSN-siRNA with or without cisplatin", "assay_type": "in vivo", "details": "siRNA alone, without cisplatin", "protocol": "Animal Studies. The animal studies conducted in these experiments were done in accordance with a protocol approved by the Institutional Animal Care and Use Committee at the City of Hope Beckman Research Institute. A total of 48 female NOD.Cg-Prkdc^scidIl2rg^tm1Wj1/SzJ (NSG) mice (The Jackson Laboratory, Bar Harbor, ME) were used. Ten week old (on average) mice were administered an intraperitoneal injection (IP) of 2.5×10^6 Ovcar8-IP cells in 200 μl of RPMI media. For all studies, mice were placed into four groups: MSN-siQ, MSN-siQ+cisplatin, MSN-si419H, and MSN-si419H+cisplatin (n=4 or n=8). Previous reports show no cellular uptake without MSNs^14, thus a siRNA-only group was not added to this study.\nBioluminescent imaging of mice (using Xenogen IVIS 100 biophotonic imaging system, STTARR, Toronto, Ontario, Canada) commenced seven days after injection of tumor cells in order to ensure engraftment, and continued once a week for four weeks. Mice were given a 100 μl IP injection of 20 mg/ml D-Luciferin (PerkinElmer, Waltham, MA). Ten minutes after the D-luciferin injection, mice were anesthetized with isoflurane (2%-5%) and placed in the biophotonic imager, and images were taken within two minutes. An alfalfa-free version of the regular rodent diet (alfalfa-free CA-1) was administered to the siQ mice to prevent autofluorescence from the regular diet.\nIP injections of MSN+siRNA (siQ fluorescently labeled with ALEXAFLUOR® 647 or si419H) were conducted one week after the inoculation of Ovcar8-IP cells and done once or twice per week for a total of four weeks. Mice received 105 μl of 500 ng/μl MSN complexed with 15 μl of 10 μM siRNA per week, divided into one full or two half doses (n=4 and n=8, respectively). This is equivalent to […] MSN/week. Weekly 3 mg/kg IP cisplatin injections were given starting two weeks after initial inoculation of cells.\nAt completion of the experiment, all animals were euthanized via CO2 asphyxiation. […]\nStatistics. All in vivo data was analyzed using one-way ANOVA with correction for multiple comparisons, comparing all groups to MSN-siQ treatment group. […]"}}}
{"substance": "si419: anti-TWIST siRNA; passenger 5′-GGACAAGCUGAGCAAGAUU-3′ (SEQ ID No: 1), guide 5′-AAUCUUGCUCAGCUUGUCCUU-3′ (SEQ ID No: 2) (listed as RNA, chemistry not fully specified)", "values": [{"measurement": "TWIST expression", "setting": "TWIST [1]", "result": "completely inhibit TWIST expression"}, {"measurement": "TWIST knockdown", "setting": "TWIST [2]; A2780R", "result": "successfully knocked down TWIST"}, {"measurement": "TWIST knockdown", "setting": "TWIST [2]; Ovcar8, double the usual dose (100 nM siRNA)", "result": "minimal"}, {"measurement": "TWIST knockdown", "setting": "TWIST [3]", "result": "robust TWIST knockdown lasting one week post transfection"}, {"measurement": "change in tumor weight", "setting": "Ovcar8-IP tumors", "result": "did not produce a statistically significant change in tumor weight"}]}
